Data: publication PMC11580984 (bioRxiv, 2024)
Numbered stars: 1 amine (or outer) side, 2 acyl side, 3 side chain; on linkers, the order of the positions; unused ones are H or OH. Bridge positions count the residues as written; N and C are the ends. Square brackets hold non-standard residues; d marks the D form. Peptide text beside a SMILES is read from it. X1 = O=S(=O)(F)Oc1cc(C[*:1])cc(C[*:2])c1; Pra = C#CC[C@H](N)C(=O)O

What follows are compounds tested against full-length spike Omicron BA2 variant (Severe acute respiratory syndrome coronavirus 2, UniProt P0DTC2, A27S/A892P/A899P/A942P/D405N/D614G/D796Y/DEL24-26/E484A/F817P/G142D/G339D/H655Y/K417N/K986P/N440K/N501Y/N679K/N764K/N969K/P681H/Q493R/Q498R/Q954H/R408S/R683A/R685A/S371F/S373P/S375F/S477N/T19I/T376A/T478K/V213G/V987P/Y505H).
Type: binding, SARS-CoV-2

| Structure (SMILES) | spike labeling |
| --- | --- |
| C#CC[C@H](N)C(=O)N[C@@H](CCC(N)=O)C(=O)N[C@H]1CSCc2cc(cc(OS(=O)(=O)F)c2)CSC[C@@H](C(=O)NCC(N)=O)NC(=O)[C@H](CC(C)C)NC(=O)[C@H](C(C)C)NC(=O)[C@H](Cc2ccc(O)cc2)NC(=O)[C@H](CC(C)C)NC(=O)[C@H](CC(=O)O)NC(=O)[C@H](CCC(N)=O)NC(=O)[C@H](C(C)C)NC1=O [CP_SW3A] (H-[Pra]QCVQDLYVLCG-NH2; linker 3-11 via X1) | highest gel labeling intensity |
| C#CC[C@H](NC(=O)[C@H](CCC(N)=O)NC(=O)[C@@H]1CSCc2cc(cc(OS(=O)(=O)F)c2)CSC[C@H](NC(=O)CN)C(=O)N[C@@H](CC(C)C)C(=O)N[C@@H](C(C)C)C(=O)N[C@@H](Cc2ccc(O)cc2)C(=O)N[C@@H](CC(C)C)C(=O)N[C@@H](CC(=O)O)C(=O)N[C@@H](CCC(N)=O)C(=O)N[C@@H](C(C)C)C(=O)N1)C(N)=O [CP_SW3A_S1] (H-GCLVYLDQVCQ[Pra]-NH2; linker 2-10 via X1) | dramatically reduced labeling |
| C#CC[C@H](N)C(=O)N[C@@H](CCC(N)=O)C(=O)N[C@H]1CSCc2cc(cc(OS(=O)(=O)F)c2)CSC[C@@H](C(=O)NCC(N)=O)NC(=O)[C@H](C(C)C)NC(=O)[C@H](CCC(N)=O)NC(=O)[C@H](CC(=O)O)NC(=O)[C@H](CC(C)C)NC(=O)[C@H](Cc2ccc(O)cc2)NC(=O)[C@H](C(C)C)NC(=O)[C@H](CC(C)C)NC1=O [CP_SW3A_S2] (H-[Pra]QCLVYLDQVCG-NH2; linker 3-11 via X1) | dramatically reduced labeling |
